Measured values reported in US11541055B2, “Inhibitors of human immunodeficiency virus replication” (ViiV Healthcare UK (No. 5) LIMITED, priority 2018, dated 2023).

Columns and labels:
[1] = Compound cytotoxicity, XTT-based colorimetric assay; format: cell-based; details: human; uninfected MT2 cells, day 4, XTT
Summary of the method: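 Run under the antiviral-assay protocol but without virus. Viability was read on day 4 and CC50 values were derived from the readout.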

[2] = system: recombinant NL4-3 virus (Renilla luciferase) in MT-2 cells; assay: HIV cell culture assay (antiviral activity, luciferase readout); format: cell-based; details: Renilla, NL43
Summary of the method: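 MT-2 cells were infected with recombinant NL4-3 virus carrying Renilla luciferase in place of part of nef. Cells were cultured 4–5 days with serially diluted compound, and luciferase was measured with a live-cell substrate. EC50 was calculated from the median effect equation.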

| Structure (SMILES) | CC50 at 4 days [1] | EC50 [2] |
| --- | --- | --- |
| Cc1cc(-c2ccc3c(=O)n(-c4ccc(Cl)c5c(NS(C)(=O)=O)nn(C)c45)c([C@H](Cc4cc(F)cc(F)c4)NC(=O)Cn4nc(C(F)F)c5c4C(F)(F)[C@@H]4C[C@H]54)nc3c2)nc(CO)n1 (atropisomer, axis not shown) [Example 118, N-[(1S)-1-[3-(4-chloro-3-methanesulfonamido-1-methyl-1H-indazol-7-yl)-7-[2-(hydroxymethyl)-6-methylpyrimidin-4-yl]-4-oxo-3,4-dihydroquinazolin-2-yl]-2-(3,5-difluorophenyl)ethyl]-2-[(2S,4R)-9-(difluoromethyl)-5,5-difluoro-7,8-diazatricyclo[4.3.0.0^2,^4]nona-1(6),8-dien-7-y]acetamide] | > 500 nM | 0.048 nM |
| COc1nccnc1-c1ccc2c(=O)n(-c3ccc(Cl)c4c(NS(C)(=O)=O)nn(C)c34)c([C@H](Cc3cc(F)cc(F)c3)NC(=O)Cn3nc(C(F)F)c4c3C(F)(F)[C@@H]3C[C@H]43)nc2c1 (atropisomer, axis not shown; (P)) [Example 15, N—((S)-1-((3P)-3-(4-chloro-1-methyl-3-(methylsulfonamido)-1H-indazol-7-yl)-7-(3-methoxypyrazin-2-yl)-4-oxo-3,4-dihydroquinazolin-2-yl)-2-(3,5-difluorophenyl)ethyl)-2-((3bS,4aR)-3-(difluoromethyl)-5,5-difluoro-3b,4,4a,5-tetrahydro-1H-cyclopropa[3,4]cyclopenta[1,2-c]pyrazol-1-yl)acetamide] | > 500 nM | 0.15 nM |
| COc1ccc(-c2ccc3c(=O)n(-c4ccc(Cl)c5c(NS(C)(=O)=O)nn(CC(F)F)c45)c([C@H](Cc4cc(F)cc(F)c4)NC(=O)Cn4nc(C(F)F)c5c4C(F)(F)[C@@H]4C[C@H]54)nc3c2)nn1 (atropisomer, axis not shown) [Example 129, N-[(1S)-1-{3-[4-chloro-1-(2,2-difluoroethyl)-3-methanesulfonamido-1H-indazol-7-yl]-7-(6-methoxypyridazin-3-yl)-4-oxo-3,4-dihydroquinazolin-2-yl}-2-(3,5-difluorophenyl)ethyl]-2-[(2S,4R)-9-(difluoromethyl)-5,5-difluoro-7,8-diazatricyclo[4.3.0.0^2,^4]nona-1(6),8-dien-7-yl]acetamide] | > 500 nM | 0.054 nM |
| O=C(Cn1nc(C(F)F)c2c1C(F)(F)[C@@H]1C[C@H]21)N[C@@H](Cc1cc(F)cc(F)c1)c1nc2cc(-c3nccc(C(F)F)n3)ccc2c(=O)n1-c1ccc(Cl)c2c(NS(=O)(=O)C3CC3)nn(CC(F)F)c12 (atropisomer, axis not shown; (P)) [Example 86, N—((S)-1-((3P)-3-(4-chloro-3-(cyclopropanesulfonamido)-1-(2,2-difluoroethyl)-1H-indazol-7-yl)-7-(4-(difluoromethyl)pyrimidin-2-yl)-4-oxo-3,4-dihydroquinazolin-2-yl)-2-(3,5-difluorophenyl)ethyl)-2-((3bS,4aR)-3-(difluoromethyl)-5,5-difluoro-3b,4,4a,5-tetrahydro-1H-cyclopropa[3,4]cyclopenta[1,2-c]pyrazol-1-yl)acetamide] | > 500 nM | 0.078 nM |
| CC(C)c1nccc(-c2ccc3c(=O)n(-c4ccc(Cl)c5c(NS(=O)(=O)C6CC6)nn(CC(F)F)c45)c([C@H](Cc4cc(F)cc(F)c4)NC(=O)Cn4nc(C(F)F)c5c4C(F)(F)[C@@H]4C[C@H]54)nc3c2)n1 (atropisomer, axis not shown; (P)) [Example 91, N—((S)-1-((3P)-3-(4-chloro-3-(cyclopropanesulfonamido)-1-(2,2-difluoroethyl)-1H-indazol-7-yl)-7-(2-isopropylpyrimidin-4-yl)-4-oxo-3,4-dihydroquinazolin-2-yl)-2-(3,5-difluorophenyl)ethyl)-2-((3bS,4aR)-3-(difluoromethyl)-5,5-difluoro-3b,4,4a,5-tetrahydro-1H-cyclopropa[3,4]cyclopenta[1,2-c]pyrazol-1-yl)acetamide] | > 500 nM | 0.19 nM |
| CCc1ncncc1-c1ccc2c(=O)n(-c3ccc(Cl)c4c(NS(C)(=O)=O)nn(C)c34)c([C@H](Cc3cc(F)cc(F)c3)NC(=O)Cn3nc(C(F)F)c4c3C(F)(F)[C@@H]3C[C@H]43)nc2c1 (atropisomer, axis not shown; (P)) [Example 60, N—((S)-1-((3P)-3-(4-chloro-1-methyl-3-(methylsulfonamido)-1H-indazol-7-yl)-7-(4-ethylpyrimidin-5-yl)-4-oxo-3,4-dihydroquinazolin-2-yl)-2-(3,5-difluorophenyl)ethyl)-2-((3bS,4aR)-3-(difluoromethyl)-5,5-difluoro-3b,4,4a,5-tetrahydro-1H-cyclopropa[3,4]cyclopenta[1,2-c]pyrazol-1-yl)acetamide] | > 500 nM | 0.077 nM |
| COc1ncc(-c2ccc3c(=O)n(-c4ccc(Cl)c5c(NS(C)(=O)=O)nn(CC(F)F)c45)c([C@H](Cc4cc(F)cc(F)c4)NC(=O)Cn4nc(C(F)F)c5c4C(F)(F)[C@@H]4C[C@H]54)nc3c2)cn1 (atropisomer, axis not shown) [Example 125, N-[(1S)-1-{3-[4-chloro-1-(2,2-difluoroethyl)-3-methanesulfonamido-1H-indazol-7-yl]-7-(2-methoxypyrimidin-5-yl)-4-oxo-3,4-dihydroquinazolin-2-yl}-2-(3,5-difluorophenyl)ethyl]-2-[(2S,4R)-9-(difluoromethyl)-5,5-difluoro-7,8-diazatricyclo[4.3.0.0^2,^4]nona-1(6),8-dien-7-yl]acetamide] | > 500 nM | 0.06 nM |
| Cc1cc(-c2ccc3c(=O)n(-c4ccc(Cl)c5c(NS(C)(=O)=O)nn(C)c45)c([C@H](Cc4cc(F)cc(F)c4)NC(=O)Cn4nc(C(F)F)c5c4C(F)(F)[C@@H]4C[C@H]54)nc3c2)nc(C)n1 (atropisomer, axis not shown; (P)) [Example 44, N—((S)-1-((3P)-3-(4-chloro-1-methyl-3-(methylsulfonamido)-1H-indazol-7-yl)-7-(2,6-dimethylpyrimidin-4-yl)-4-oxo-3,4-dihydroquinazolin-2-yl)-2-(3,5-difluorophenyl)ethyl)-2-((3bS,4aR)-3-(difluoromethyl)-5,5-difluoro-3b,4,4a,5-tetrahydro-1H-cyclopropa[3,4]cyclopenta[1,2-c]pyrazol-1-yl)acetamide] | > 500 nM | 0.04 nM |
| Cc1nnc(-c2ccc3c(=O)n(-c4ccc(Cl)c5c(NS(C)(=O)=O)nn(C)c45)c([C@H](Cc4cc(F)cc(F)c4)NC(=O)Cn4nc(C(F)F)c5c4C(F)(F)[C@@H]4C[C@H]54)nc3c2)nc1C (atropisomer, axis not shown; (P)) [Example 55, N—((S)-1-((3P)-3-(4-chloro-1-methyl-3-(methylsulfonamido)-1H-indazol-7-yl)-7-(5,6-dimethyl-1,2,4-triazin-3-yl)-4-oxo-3,4-dihydroquinazolin-2-yl)-2-(3,5-difluorophenyl)ethyl)-2-((3bS,4aR)-3-(difluoromethyl)-5,5-difluoro-3b,4,4a,5-tetrahydro-1H-cyclopropa[3,4]cyclopenta[1,2-c]pyrazol-1-yl)acetamide] | > 500 nM | 0.032 nM |
